Measurements from patent US10647677B2, “Analogues of hydroxychloroquine (HCQ) without retinal toxicity” (Inoviem Scientific, priority 2015, dated 2020).
Entries after “also recorded” stand apart in the source; their conditions may differ. Read-outs that look alike come from different tables or passages of the source.

Key:
[1] = tested on: MRL/Ipr mice (lupus model); assay: Development of the disease: dermatitis in MRL/Ipr mice; format: in vivo; conditions: 10 mg/kg, compared to carrier and HCQ 10 mg/kg (FIG. 2)
Experimental: (§1) The MRL/MPJ-Fas (Ipr) (MRL-Ipr) and C57Bl/6 mice for the behavioral experiments are from the Jackson Laboratory and are randomly distributed into 5 groups. All animals were kept at controlled temperature (23° C.+/−1° C.) with a 12-hour day/night cycle, water and ad libitum food.
(§2) Mice received the specified dose of hydroxychloroquine (Tokyo Chemical Industry), CB137 or carrier intraperitoneally (IP), every 24 hours and for 5 days over a 10-week period. With regard to the MRL/Ipr mice, treatment started at 7 weeks of age, and ended at 23 weeks of age where a significant proportion of untreated mice died. With regard to the C57B1/6 mice, the same treatment program was carried out and the mice were sacrificed after […]. HCQ and CB137 were each freshly prepared in physiological saline and injected into the mice in a final volume of 50 μL. The MRL/Ipr mice were examined daily for skin lesions. For histological analysis, the animals were sacrificed and the tissues were rapidly dissected and immediately post-fixed.
Dermatitis was less common in mice treated with CB137 10 mg/kg compared to control (carrier) mice and HCQ treated mice (10 mg/kg (FIG. 2).

[2] = target: T1, αB-crystalline (αB-C) (Homo sapiens, UniProt P02511); assay: Surface plasmon resonance (Biacore 3000) affinity on αB-crystalline; format: binding; conditions: SPR at 25° C., read-out: Kd (M) on crystallin
T1 construct: purchased
T1 sequence (P02511 1-175): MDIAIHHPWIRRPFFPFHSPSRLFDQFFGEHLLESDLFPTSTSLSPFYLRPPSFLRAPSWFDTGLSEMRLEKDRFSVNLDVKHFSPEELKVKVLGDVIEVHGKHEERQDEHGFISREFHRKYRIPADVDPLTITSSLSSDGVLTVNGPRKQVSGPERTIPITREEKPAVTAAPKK
Experimental: Using the surface plasmon resonance technology (Biacore 3000), the interaction constants between HCQ analogues (HCQa) and myeloperoxidase (MPO) targets and αB-crystalline (αB-C) were measured at 25° C. according to 12 different series of experiments. First, HCQ analogues at five different concentrations (10^−6 to 10^−8 M) were injected at a rate of 10^−6 L/min for 250 s on the MPO and αB-C targets as well as on the ERK1 and ERK2 controls, followed by a dissociation phase of 150 s.
The kinetic parameters were measured using the BIAevaluation 4.1 software. The set of resonance unit values obtained with the controls were subtracted from those obtained with MPO and αB-C to compensate for non-specific bonds.
The differences in Kd values for the myeloperoxidase (MPO) and αB-crystalline (αB-C) enzymes in Tables 1 and 2 are due to the variability of commercial batches. Nevertheless, the difference between the Kd of the compounds HCQ and CB137 remains identical according to these two tests.
Analysis of the compounds in the form of sulphate salts according to the method described above: […]

[3] = tested on: MRL/Ipr mice (lupus model); assay: Survival of MRL/Ipr mice (lupus model); format: in vivo; conditions: 10 mg/kg IP, compared with HCQ at the same dose (FIG. 1)
Experimental: as §1, §2

[4] = tested on: C57Bl/6 mice, pulmonary vasculitis induced by immune complexes; assay: Pulmonary vasculitis induced by immune complexes: histological analysis of lung sections; format: in vivo; conditions: per os before induction; HCQ 10 mg/kg, CB137 10, 30 or 100 mg/kg (FIG. 6)
Experimental: Female C57Bl/6 strain mice from the Jackson Laboratory, 8-10 weeks old and weighing about 20 g, are used in all experiments. The mice are maintained at a temperature of 23° C.±1° C. with 12-hour light/dark cycle. Mice have access to water and food ad libitum and are housed at least one week before the beginning of any experiments.
A retro-orbital blood sampling was performed using capillaries containing heparin on mice anesthetized with isoflurane the day before the manipulation. The next day, the mice were anesthetized with a mixture of ketamine and xylasin (90 mg/kg and 125 mg/kg, respectively). The immune IgG complex is induced in the lungs by intratracheal instillation of 0.5 mg of anti-BSA rabbit antibody (MP Biomedicals, Strasbourg, France) and by the administration of 0.5 mg per mouse of BSA antigen in the caudal vein (Warner et al., 2001 and Warren et al., 1989). The specified treatment (PF-1355, CB137 or solvent alone) is administered enterally. The animals are euthanized 4 hours after intratracheal instillation. […]
The lung sections are examined under a light microscope (Axio LabA1 by Zeiss brand) to assess the intensity of the neutrophil influx and the level of hemorrhage, and to identify the structural alterations. A minimum of 10 fields at 400× magnification is analyzed per animal. […]

[5] = Table 2, compounds in the form of sulphate salts

Row | SMILES | dermatitis (rate of mice having dermatitis) [1] | Kd ([2]; Table 1) [M] | Kd [2, 5] [M] | survival rate [3] | inhibition of pulmonary vasculitis / pulmonary inflammation induced by immune complexes (lung sections) [4]
1 | CCN(CCO)CCCC(C)Nc1c(Cl)cnc2cc(Cl)ccc12 (centres unmarked) [CB137] | less common | 1.75e-07 | 3e-05 | significantly higher survival rate | inhibiting pulmonary vasculitis; also recorded: limits pulmonary inflammation
2 | CCN(CCO)CCCC(C)Nc1ccnc2cc(Cl)ccc12 (centres unmarked) [Commercial HCQ, hydroxychloroquine] |  | 2.2e-08 | 1e-06 |  | inhibiting pulmonary vasculitis
